For the experiment, the target named is T1, EDG-1/S1P1 receptor (Homo sapiens, UniProt P21453).
T1 construct: expressed in transfected cells; host or cells: human osteogenic sarcoma U2OS cells (EDG-1 Transfluor U2OS WT Clone #37)
Briefly: In vitro cell based receptor activation assay - Transfluor assay. To be noted: EDG-1 Transfluor U2OS WT Clone #37 cells; beta-arrestin GFP relocalization; 375 nM or 750 nM S1P ligand. An excerpt: A. In Vitro Cell Based Receptor Activation Assay-Transfluor Assay
This cell-based assay was designed to assess the ability of small molecule antagonists to inhibit activation of the GPCR S1P1 in the presence of its cognate ligand S1P. The assay used technology initially developed by Norak Biosciences (Xsira Pharmaceutical) and presently owned by Molecular Devices. A human osteogenic sarcoma (U2OS) cell line overexpressing the EDG-1/S1P1) receptor as well as a beta-arrestin/green fluorescent protein (GFP) construct hereafter termed EDG-1 Transfluor U2OS WT Clone #37 was employed.
Using a high content screening approach (Cellomics Arrayscan), receptor activity was measured by assessment of the relocalization of beta-arrestin GFP in response to stimulation of EDG-1 by S1P. Specifically, EDG-1 Transfluor U2OS WT Clone #37 cells were plated at a density of 6250 cells in 40 uL medium per well in 384 well plastic bottomed microtiter plates (BD Falcon) and incubated overnight at 37° C./5% CO2. Prior to screening, compounds were dissolved in 100% dimethyl sulfoxide (DMSO) to a final stock concentration of 10 mM. […] Plates were then sealed and analysed on the Cellomics Arrayscan using the GPCR signalling algorithm. EC50 values were then calculated using IDBS ActivityBase software.

T1 sequence (P21453 whole entry): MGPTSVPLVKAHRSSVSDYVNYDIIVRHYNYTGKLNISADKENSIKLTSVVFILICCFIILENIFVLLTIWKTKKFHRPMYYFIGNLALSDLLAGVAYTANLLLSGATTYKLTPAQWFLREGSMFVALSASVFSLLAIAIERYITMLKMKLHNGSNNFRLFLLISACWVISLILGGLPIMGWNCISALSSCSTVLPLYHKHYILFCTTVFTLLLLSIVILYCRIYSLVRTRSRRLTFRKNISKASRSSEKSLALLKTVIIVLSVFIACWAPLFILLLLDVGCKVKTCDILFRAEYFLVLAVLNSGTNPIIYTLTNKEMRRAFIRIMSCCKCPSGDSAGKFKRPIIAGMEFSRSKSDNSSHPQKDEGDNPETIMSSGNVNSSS

In turn, `CCc1c(C(C)NS(=O)(=O)c2ccc(Cl)cc2)n[nH]c1C` (stereo not shown) [Example 1] yielded an EC50 of 680 nM. This lies in the sub-micromolar range.

By EC50 is commonly meant the concentration that produces a half-maximal response.

These data come from patent US20090111860A1, “SULFONAMIDE COMPOUNDS USEFUL AS ADG RECEPTOR MODULATORS” (ASTRAZENECA AB, priority 2006, published 2009).
